Source: ChEMBL document CHEMBL5291721, “A preclinical secondary pharmacology resource illuminates target-adverse drug reaction associations of marketed drugs” (Nat Commun, 2023)

Assays:
Acetylcholinesterase = Acetylcholinesterase (Homo sapiens, UniProt P22303); type: functional
[1] = target: T1, Alpha-2A adrenergic receptor (Homo sapiens, UniProt P08913)
T1 sequence (P08913 whole entry): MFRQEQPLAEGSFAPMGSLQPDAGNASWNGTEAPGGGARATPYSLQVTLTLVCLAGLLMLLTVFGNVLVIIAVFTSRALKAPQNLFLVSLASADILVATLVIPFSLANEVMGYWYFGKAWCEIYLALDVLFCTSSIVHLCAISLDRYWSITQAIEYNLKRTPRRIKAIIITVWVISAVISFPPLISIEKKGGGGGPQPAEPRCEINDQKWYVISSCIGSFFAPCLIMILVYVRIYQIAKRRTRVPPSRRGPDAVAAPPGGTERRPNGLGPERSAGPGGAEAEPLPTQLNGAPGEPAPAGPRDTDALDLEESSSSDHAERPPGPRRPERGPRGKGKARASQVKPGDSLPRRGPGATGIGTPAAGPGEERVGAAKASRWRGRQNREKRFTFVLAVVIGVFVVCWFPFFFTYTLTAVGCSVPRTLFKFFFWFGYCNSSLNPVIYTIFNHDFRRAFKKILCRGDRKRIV

D(1A) dopamine receptor = D(1A) dopamine receptor (Homo sapiens, UniProt P21728)
D(1A) dopamine receptor, sequence (P21728 whole entry): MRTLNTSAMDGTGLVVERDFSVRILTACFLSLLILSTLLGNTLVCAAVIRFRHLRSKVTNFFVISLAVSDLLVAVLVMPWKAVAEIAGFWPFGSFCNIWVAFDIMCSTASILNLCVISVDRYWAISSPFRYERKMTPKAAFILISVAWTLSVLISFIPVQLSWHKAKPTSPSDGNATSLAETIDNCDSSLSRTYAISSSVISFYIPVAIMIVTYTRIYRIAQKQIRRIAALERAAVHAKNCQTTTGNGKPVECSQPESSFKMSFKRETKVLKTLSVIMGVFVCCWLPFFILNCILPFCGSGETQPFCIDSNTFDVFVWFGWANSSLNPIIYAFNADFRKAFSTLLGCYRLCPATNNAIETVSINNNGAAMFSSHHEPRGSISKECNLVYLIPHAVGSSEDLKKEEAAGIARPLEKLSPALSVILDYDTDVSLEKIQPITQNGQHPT

D(3) dopamine receptor = D(3) dopamine receptor (Homo sapiens, UniProt P35462)
D(3) dopamine receptor, sequence (P35462 whole entry): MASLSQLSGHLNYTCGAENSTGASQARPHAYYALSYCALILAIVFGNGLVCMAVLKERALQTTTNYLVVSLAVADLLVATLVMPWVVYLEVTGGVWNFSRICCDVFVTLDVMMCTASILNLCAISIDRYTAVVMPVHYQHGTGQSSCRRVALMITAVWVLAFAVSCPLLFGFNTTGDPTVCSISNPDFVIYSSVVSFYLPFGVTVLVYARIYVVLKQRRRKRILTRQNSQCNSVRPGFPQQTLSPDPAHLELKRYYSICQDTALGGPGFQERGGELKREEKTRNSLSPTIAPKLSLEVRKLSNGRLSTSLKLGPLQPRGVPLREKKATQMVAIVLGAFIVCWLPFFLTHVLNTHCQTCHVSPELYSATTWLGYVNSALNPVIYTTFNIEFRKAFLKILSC

Prothrombin = Prothrombin (Homo sapiens, UniProt P00734); type: functional
[2] = target: cGMP-inhibited 3',5'-cyclic phosphodiesterase 3A (Homo sapiens, UniProt Q14432); type: functional
cGMP-inhibited 3',5'-cyclic phosphodiesterase 3A, sequence (Q14432 whole entry): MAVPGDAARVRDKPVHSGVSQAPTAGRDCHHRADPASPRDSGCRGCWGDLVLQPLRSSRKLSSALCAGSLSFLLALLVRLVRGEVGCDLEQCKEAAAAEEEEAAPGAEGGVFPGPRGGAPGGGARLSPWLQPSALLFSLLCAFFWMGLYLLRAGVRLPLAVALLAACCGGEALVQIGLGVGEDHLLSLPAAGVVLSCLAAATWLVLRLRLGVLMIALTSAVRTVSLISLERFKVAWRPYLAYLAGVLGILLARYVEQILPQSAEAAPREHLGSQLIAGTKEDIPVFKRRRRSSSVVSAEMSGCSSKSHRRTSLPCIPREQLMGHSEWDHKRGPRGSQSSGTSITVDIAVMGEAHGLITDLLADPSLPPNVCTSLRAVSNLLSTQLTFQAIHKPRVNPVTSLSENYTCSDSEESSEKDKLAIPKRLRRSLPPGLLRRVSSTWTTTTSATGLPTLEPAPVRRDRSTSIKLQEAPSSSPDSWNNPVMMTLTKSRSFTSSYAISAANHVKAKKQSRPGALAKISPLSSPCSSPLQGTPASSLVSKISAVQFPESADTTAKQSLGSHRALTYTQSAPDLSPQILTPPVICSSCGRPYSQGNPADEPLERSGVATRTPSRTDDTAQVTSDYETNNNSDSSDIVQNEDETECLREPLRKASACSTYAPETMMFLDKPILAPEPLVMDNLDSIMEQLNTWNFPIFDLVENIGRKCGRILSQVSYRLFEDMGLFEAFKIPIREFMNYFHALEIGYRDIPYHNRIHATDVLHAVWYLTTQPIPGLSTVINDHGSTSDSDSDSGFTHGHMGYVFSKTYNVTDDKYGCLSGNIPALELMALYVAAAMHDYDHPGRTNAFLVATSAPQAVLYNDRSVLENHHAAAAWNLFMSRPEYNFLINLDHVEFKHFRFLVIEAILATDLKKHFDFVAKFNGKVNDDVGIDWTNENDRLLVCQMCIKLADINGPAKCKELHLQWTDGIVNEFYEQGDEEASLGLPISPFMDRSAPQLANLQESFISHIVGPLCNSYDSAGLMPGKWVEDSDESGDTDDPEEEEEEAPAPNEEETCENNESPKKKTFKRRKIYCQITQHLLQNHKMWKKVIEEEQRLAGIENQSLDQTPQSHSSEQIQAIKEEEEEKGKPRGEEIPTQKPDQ

Progesterone receptor = target: T2, Progesterone receptor (Homo sapiens, UniProt P06401)
T2 sequence (P06401 whole entry): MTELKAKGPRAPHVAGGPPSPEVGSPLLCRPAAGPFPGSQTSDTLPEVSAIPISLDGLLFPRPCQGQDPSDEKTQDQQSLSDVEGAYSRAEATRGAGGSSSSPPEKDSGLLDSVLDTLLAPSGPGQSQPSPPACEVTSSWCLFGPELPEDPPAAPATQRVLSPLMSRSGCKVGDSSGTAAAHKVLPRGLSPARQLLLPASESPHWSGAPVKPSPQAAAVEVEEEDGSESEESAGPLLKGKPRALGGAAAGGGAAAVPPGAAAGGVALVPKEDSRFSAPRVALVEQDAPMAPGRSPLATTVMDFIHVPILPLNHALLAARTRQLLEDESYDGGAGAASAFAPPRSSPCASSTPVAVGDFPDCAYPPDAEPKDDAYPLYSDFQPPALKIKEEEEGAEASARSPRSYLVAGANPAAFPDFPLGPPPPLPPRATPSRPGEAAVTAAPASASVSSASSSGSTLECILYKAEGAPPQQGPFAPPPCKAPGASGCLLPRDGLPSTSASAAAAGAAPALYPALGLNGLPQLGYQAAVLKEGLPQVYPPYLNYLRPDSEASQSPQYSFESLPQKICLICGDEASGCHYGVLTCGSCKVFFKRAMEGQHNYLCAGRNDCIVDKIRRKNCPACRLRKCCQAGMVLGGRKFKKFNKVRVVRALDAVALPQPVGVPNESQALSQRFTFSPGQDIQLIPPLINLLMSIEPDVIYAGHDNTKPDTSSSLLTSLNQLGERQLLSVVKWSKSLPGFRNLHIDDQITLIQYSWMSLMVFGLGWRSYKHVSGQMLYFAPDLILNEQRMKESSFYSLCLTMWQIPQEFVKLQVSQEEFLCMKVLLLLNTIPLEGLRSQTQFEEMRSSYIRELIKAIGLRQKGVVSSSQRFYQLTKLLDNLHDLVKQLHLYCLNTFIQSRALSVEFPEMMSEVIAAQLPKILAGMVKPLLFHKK

[3] = target: Sodium-dependent dopamine transporter (Homo sapiens, UniProt Q01959)
Sodium-dependent dopamine transporter, sequence (Q01959 whole entry): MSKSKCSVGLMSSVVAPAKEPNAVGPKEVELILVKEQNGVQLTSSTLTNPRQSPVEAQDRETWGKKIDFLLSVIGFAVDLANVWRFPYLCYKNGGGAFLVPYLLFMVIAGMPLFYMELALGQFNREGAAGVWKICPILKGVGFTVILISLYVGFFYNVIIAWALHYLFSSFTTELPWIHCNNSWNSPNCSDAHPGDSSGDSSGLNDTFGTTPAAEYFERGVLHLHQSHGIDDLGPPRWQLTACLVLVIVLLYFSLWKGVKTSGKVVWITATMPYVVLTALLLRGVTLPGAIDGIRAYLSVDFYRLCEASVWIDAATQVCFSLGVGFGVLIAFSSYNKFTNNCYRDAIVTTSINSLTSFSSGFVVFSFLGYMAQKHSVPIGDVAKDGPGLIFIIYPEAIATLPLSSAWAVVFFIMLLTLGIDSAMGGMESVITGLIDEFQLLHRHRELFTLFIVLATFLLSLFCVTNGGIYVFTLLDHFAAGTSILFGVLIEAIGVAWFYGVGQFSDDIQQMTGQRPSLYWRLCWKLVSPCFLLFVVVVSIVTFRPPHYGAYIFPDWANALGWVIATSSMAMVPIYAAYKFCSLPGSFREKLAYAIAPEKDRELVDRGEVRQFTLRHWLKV

Thromboxane A2 receptor [4] = target: T3, Thromboxane A2 receptor (Homo sapiens, UniProt P21731); type: functional, cell-based
T3 sequence (P21731 whole entry): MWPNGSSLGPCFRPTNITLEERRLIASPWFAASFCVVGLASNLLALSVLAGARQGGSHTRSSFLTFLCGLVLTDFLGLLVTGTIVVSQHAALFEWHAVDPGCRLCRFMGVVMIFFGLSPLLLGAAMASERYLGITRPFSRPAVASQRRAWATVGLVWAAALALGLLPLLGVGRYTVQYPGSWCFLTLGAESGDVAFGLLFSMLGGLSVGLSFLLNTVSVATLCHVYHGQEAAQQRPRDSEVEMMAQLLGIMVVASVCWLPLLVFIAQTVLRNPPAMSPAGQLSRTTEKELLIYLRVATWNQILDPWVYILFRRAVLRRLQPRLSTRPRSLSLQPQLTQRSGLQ

Thromboxane A2 receptor [5] = target: T3, Thromboxane A2 receptor; type: functional, cell-based; remark: listed apart in the source
[6] = target: Voltage-gated inwardly rectifying potassium channel KCNH2 (Homo sapiens, UniProt Q12809); type: functional; details: read-out: AC50
Voltage-gated inwardly rectifying potassium channel KCNH2, sequence (Q12809 whole entry): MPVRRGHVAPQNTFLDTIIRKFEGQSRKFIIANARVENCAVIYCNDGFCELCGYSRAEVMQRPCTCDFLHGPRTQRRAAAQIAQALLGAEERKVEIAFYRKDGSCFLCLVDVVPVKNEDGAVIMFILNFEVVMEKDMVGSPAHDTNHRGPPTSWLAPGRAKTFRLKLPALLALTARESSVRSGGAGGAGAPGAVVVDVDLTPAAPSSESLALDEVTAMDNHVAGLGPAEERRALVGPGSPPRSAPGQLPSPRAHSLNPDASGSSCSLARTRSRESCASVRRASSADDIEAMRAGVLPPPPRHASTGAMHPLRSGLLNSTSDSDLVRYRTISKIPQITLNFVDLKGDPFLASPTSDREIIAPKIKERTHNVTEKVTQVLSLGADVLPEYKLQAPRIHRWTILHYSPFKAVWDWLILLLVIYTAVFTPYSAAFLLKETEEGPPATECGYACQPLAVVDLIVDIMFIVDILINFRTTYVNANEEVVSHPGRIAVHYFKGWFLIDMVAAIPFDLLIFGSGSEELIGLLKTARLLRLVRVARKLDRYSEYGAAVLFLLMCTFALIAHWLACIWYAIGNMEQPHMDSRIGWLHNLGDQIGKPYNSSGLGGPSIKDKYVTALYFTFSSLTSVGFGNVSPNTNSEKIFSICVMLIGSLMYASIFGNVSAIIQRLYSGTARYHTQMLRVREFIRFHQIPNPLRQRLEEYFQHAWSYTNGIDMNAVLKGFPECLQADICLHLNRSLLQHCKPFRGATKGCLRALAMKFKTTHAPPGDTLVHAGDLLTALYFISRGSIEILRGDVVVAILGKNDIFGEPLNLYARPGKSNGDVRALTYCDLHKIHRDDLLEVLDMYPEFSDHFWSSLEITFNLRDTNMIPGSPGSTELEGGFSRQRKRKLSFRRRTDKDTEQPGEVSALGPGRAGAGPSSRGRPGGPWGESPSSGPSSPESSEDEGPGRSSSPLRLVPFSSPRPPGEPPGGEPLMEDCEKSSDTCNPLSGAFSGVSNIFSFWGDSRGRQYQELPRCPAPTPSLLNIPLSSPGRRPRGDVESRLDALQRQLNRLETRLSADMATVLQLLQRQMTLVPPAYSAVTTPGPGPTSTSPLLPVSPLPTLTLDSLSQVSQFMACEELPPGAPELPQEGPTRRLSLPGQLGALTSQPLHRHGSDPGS

[7] = target: T4, Alpha-1A adrenergic receptor (Homo sapiens, UniProt P35348); type: functional, cell-based
T4 sequence (P35348 whole entry): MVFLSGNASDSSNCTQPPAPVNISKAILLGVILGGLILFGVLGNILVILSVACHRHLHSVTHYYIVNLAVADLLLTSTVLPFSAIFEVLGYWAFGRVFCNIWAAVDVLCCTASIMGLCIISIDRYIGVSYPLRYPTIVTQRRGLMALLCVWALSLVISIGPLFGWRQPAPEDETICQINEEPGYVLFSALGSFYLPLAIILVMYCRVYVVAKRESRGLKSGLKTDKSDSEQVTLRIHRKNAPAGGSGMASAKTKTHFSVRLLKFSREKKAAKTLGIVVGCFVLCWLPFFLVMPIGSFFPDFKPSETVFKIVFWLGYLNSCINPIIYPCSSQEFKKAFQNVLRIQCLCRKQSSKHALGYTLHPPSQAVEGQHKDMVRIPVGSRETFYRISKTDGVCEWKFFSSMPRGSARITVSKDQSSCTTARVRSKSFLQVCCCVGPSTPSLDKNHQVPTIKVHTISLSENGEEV
Further: assay procedure not described here.

Acetylcholinesterase, sequence (P22303 whole entry): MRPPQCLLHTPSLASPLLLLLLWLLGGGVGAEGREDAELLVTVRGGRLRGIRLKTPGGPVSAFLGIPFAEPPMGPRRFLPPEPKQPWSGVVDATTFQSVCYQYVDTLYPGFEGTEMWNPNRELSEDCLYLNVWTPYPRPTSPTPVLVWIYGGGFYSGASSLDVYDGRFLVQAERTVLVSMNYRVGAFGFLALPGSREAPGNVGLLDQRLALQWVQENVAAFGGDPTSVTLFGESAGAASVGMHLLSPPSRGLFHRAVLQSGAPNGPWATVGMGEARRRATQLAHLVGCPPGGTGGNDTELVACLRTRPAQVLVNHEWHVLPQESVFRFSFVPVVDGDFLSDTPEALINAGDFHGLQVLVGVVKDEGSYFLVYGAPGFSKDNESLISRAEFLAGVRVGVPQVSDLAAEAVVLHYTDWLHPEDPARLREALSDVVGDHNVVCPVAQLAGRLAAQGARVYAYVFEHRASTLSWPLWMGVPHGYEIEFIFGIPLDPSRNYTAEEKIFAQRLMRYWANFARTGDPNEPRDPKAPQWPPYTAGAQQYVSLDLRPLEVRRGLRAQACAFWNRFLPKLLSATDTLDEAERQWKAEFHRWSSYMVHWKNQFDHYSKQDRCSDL

SMILES	AC50 (Acetylcholinesterase) [µM]	AC50 [1] [µM]	AC50 (D(1A) dopamine receptor) [µM]	AC50 (D(3) dopamine receptor) [µM]	AC50 (Prothrombin) [µM]	AC50 [2] [µM]	AC50 (Progesterone receptor) [µM]	AC50 [3] [µM]	AC50 (Thromboxane A2 receptor [4]) [µM]	AC50 (Thromboxane A2 receptor [5]) [µM]	AC50 [6] [µM]	AC50 [7] [µM]
CCCCCCCC(=O)N[C@H](CN1CCCC1)[C@H](O)c1ccc2c(c1)OCCO2	> 30	> 30	> 30	> 30	> 30	> 30	> 30	> 30	> 30	> 30	–	–
C[C@]12CC[C@H](O)CC1=CC[C@@H]1[C@@H]2CC[C@]2(C)C(c3cccnc3)=CC[C@@H]12 [ABIRATERONE]	–	–	–	–	–	–	–	–	–	–	> 30	–
CC(=O)OCC[N+](C)(C)C [ACETYLCHOLINE]	> 30	> 30	> 30	> 30	> 30	> 30	> 30	> 30	0.34	–	> 30	> 30
O=C(Nc1nc(-c2cc(Cl)cs2)c(N2CCN(C3CCCCC3)CC2)s1)c1cnc(N2CCC(C(=O)O)CC2)c(Cl)c1 [AVATROMBOPAG]	> 30	> 30	> 30	> 30	> 30	> 30	> 30	> 30	> 30	> 10	12.4	–
CN(C)C(=O)Oc1cc(OC(=O)N(C)C)cc(C(O)CNC(C)(C)C)c1 (stereo not given) [BAMBUTEROL]	–	–	–	–	–	–	–	–	–	–	16	–
CO[C@@]1(NC(=O)CSCC#N)C(=O)N2C(C(=O)O)=C(CSc3nnnn3C)CS[C@@H]21 [CEFMETAZOLE]	> 30	> 30	> 30	> 30	> 30	> 30	> 30	> 30	> 30	> 30	> 30	–
NS(=O)(=O)c1cc(C2(O)NC(=O)c3ccccc32)ccc1Cl (stereo not given) [CHLORTHALIDONE]	–	–	–	–	–	–	–	–	–	–	> 30	–
Oc1c(I)cc(Cl)c2cccnc12 [CLIOQUINOL]	> 30	> 30	> 30	> 10	> 30	> 30	> 30	> 30	> 30	> 10	> 30	–
C[C@@H]1CCC[C@H](C)N1NC(=O)c1ccc(Cl)c(S(N)(=O)=O)c1 [CLOPAMIDE]	–	–	–	–	–	–	–	–	–	–	> 30	–
COc1ccc2c(c1)[C@]13CCCC[C@@H]1[C@H](C2)N(C)CC3 [DEXTROMETHORPHAN]	–	–	–	–	–	–	–	–	–	–	21.1	–
O=c1oc2ccccc2c(O)c1Cc1c(O)c2ccccc2oc1=O [DICUMAROL]	–	–	–	–	–	–	–	–	–	–	> 30	–
O=C(O)CSCC(=O)NC1CCSC1=O (stereo not given) [ERDOSTEINE]	–	–	–	–	–	–	–	–	–	–	> 30	–
COc1cccc(N(C)C(=S)Oc2ccc3c(c2)CCCC3)n1 [LIRANAFTATE]	–	–	–	–	–	–	–	–	–	–	> 30	–
C#C[C@]1(O)CC[C@H]2[C@@H]3CCc4cc(OC)ccc4[C@H]3CC[C@@]21C [MESTRANOL]	–	–	–	–	–	–	–	–	–	–	> 30	–
CCC(=O)O[C@@H]1CC(=O)O[C@H](C)C/C=C/C=C/[C@H](OC(C)=O)[C@H](C)C[C@H](CC=O)[C@H](O[C@@H]2O[C@H](C)[C@@H](O[C@H]3C[C@@](C)(OC(C)=O)[C@@H](OC(=O)CC)[C@H](C)O3)[C@H](N(C)C)[C@H]2O)[C@H]1OC [MIOCAMYCIN]	> 30	> 30	> 30	> 30	> 30	> 30	> 30	> 30	> 30	> 30	–	–
N=C(N)c1ccc2cc(OC(=O)c3ccc(N=C(N)N)cc3)ccc2c1 [NAFAMOSTAT]	–	–	–	–	–	–	–	–	–	–	3.3	–
c1ccc2c(CC3=NCCN3)cccc2c1 [NAPHAZOLINE]	> 30	0.022	> 30	–	> 30	> 30	> 30	> 30	> 30	> 30	> 30	0.0014
CNC(=O)Oc1ccc2c(c1)[C@]1(C)CCN(C)[C@@H]1N2C [PHYSOSTIGMINE]	–	> 30	> 30	> 30	> 30	> 30	> 30	> 30	> 30	> 30	> 30	> 30
O=C(O)c1cc(O)c2c3nc4ccccc4oc-3cc(=O)c2n1 [PIRENOXINE]	–	–	–	–	–	–	–	–	–	–	> 30	–
NS(=O)(=O)c1cc(C(=O)O)cc(N2CCCC2)c1Oc1ccccc1 [PIRETANIDE]	–	–	–	–	–	–	–	–	–	–	> 30	–
CNCCCC1c2ccccc2C=Cc2ccccc21 [PROTRIPTYLINE]	–	–	–	–	–	–	–	–	–	–	1	–
CO[C@H]1/C=C/O[C@@]2(C)Oc3c(C)c(O)c4c(O)c(cc(O)c4c3C2=O)NC(=O)/C(C)=C\C=C\[C@H](C)[C@H](O)[C@@H](C)[C@@H](O)[C@@H](C)[C@H](OC(C)=O)[C@@H]1C [RIFAMYCIN]	> 30	> 30	> 30	> 30	> 30	> 30	> 30	> 30	8.77	–	> 30	8.13
CC(C)=CCOc1ccc(/C=C/C(=O)c2ccc(OCC=C(C)C)cc2OCC(=O)O)cc1 [SOFALCONE]	–	–	–	–	–	–	–	–	–	–	> 30	–
O=C(CCCN1CCC2(CC1)C(=O)NCN2c1ccccc1)c1ccc(F)cc1 [SPIPERONE]	–	–	–	–	–	–	–	–	–	–	0.22	–
CCOC(=O)[C@H](CCc1ccccc1)N[C@H]1CS[C@H](c2cccs2)CN(CC(=O)O)C1=O [TEMOCAPRIL]	> 30	> 30	> 30	> 30	> 30	> 30	–	> 30	> 30	> 30	> 30	> 30
CN(C)c1cc(NC(=O)CNC(C)(C)C)c(O)c2c1C[C@H]1C[C@H]3[C@H](N(C)C)C(O)=C(C(N)=O)C(=O)[C@@]3(O)C(O)=C1C2=O [TIGECYCLINE]	–	–	–	–	–	–	–	–	–	–	> 30	–
OCCN1CCN(CC/C=C2/c3ccccc3Sc3ccc(Cl)cc32)CC1 [ZUCLOPENTHIXOL]	–	–	–	–	–	–	–	–	–	–	0.9	–
